Test results taken from US20240226066A1, “CARDIOPROTECTION BY AUTOPHAGY INDUCTION AND METABOLIC REPROGRAMMING” (UNIVERSITE PARIS-SACLAY, priority 2021, published 2024).
Read-outs that look alike come from different tables or passages of the source.

What was measured:
[1] = tested on: primary rat neonatal ventricular cardiomyocytes (RNVCs); experiment: Protection of RNVCs against camptothecin-induced apoptosis (LDH release, propidium iodide); type: cell-based; conditions: camptothecin 10 μM
Protocol: Neonatal rat cardiomyocytes were isolated as described previously (Wang et al., Cell Death Dis, 2016, 7:e2198).
(§1) A colorimetric assay was used to measure lactate dehydrogenase (LDH), a cytosolic enzyme which is released during permeabilization of the plasma membrane (Promega G1780). The assay was performed using cell culture supernatants obtained from H9C2 or RNVC (rat neonatal ventricular myocyte) cells and lysis buffer (LB) was used as a positive control for total cell lysis. The LDH release was measured by absorbance reading at 490 nm (Infinite spectrofluorimeter, Tecan).
Propidium iodide, a non-permeable fluorescent DNA marker, was used to measure membrane integrity. Propidium iodide at 10 μM was added to the culture medium and a fluorescence reading was performed (for […]: 530 nm; em: 620 nm), the LB was used as a positive control for total cell lysis.
(§2) The effect of the compounds was then evaluated on primary rat neonatal ventricular cardiomyocytes (RNVCs) using the LDH test and propidium iodide staining. […] The absence of proliferative effects of the compounds was also evaluated on the A549 lung cancer cell line for 48 h (FIG. 2C).

[2] = molecular target: T1, hERG potassium channel (Homo sapiens, UniProt Q12809); experiment: hERG channel binding assay ([3H]dofetilide displacement); conditions: for inhibition at 10 µM: human, probe [3H]dofetilide
T1 construct: Eurofins
T1 sequence (Q12809 whole entry): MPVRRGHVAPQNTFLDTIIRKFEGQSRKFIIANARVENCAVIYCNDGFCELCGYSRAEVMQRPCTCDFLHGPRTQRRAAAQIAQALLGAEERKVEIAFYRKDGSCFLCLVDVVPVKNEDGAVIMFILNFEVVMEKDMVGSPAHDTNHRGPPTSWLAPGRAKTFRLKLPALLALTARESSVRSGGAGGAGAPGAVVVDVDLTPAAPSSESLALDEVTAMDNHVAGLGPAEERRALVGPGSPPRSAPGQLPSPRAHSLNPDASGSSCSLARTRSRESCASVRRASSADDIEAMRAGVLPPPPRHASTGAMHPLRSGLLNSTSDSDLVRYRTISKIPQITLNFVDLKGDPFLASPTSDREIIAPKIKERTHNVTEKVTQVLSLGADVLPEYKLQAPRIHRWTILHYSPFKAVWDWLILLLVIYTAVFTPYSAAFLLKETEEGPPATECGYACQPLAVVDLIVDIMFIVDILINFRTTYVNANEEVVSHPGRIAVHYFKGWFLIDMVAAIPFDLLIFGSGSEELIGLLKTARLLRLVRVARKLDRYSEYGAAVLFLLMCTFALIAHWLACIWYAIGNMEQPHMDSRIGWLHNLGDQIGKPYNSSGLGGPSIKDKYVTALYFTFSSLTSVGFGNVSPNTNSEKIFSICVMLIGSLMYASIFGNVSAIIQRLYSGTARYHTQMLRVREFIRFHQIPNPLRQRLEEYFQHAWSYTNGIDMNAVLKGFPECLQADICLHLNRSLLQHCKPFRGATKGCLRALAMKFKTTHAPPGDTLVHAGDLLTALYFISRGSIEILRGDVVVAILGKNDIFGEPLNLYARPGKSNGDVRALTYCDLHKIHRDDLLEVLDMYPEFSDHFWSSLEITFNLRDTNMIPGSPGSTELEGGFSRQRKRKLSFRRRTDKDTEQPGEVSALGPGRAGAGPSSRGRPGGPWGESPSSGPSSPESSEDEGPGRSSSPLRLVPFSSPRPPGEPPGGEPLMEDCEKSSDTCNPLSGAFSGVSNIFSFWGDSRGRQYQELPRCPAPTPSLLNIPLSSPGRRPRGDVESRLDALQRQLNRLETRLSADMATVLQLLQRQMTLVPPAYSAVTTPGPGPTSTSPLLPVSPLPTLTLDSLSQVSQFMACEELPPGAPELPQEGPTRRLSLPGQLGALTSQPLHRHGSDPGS
Protocol: The evaluation of the binding of the compounds to the human hERG potassium channel was carried out as described previously (Eurofins).
Since the blocking of the human potassium channel hERG channel may be responsible for cardiac fibrillation leading to cardiac arrest and death of the patient, the binding of the 3 molecules SG6163F, VP331 and LOPA87 to this receptor was evaluated.

[3] = tested on: RNVCs; experiment: Mitochondrial network and cell volume by confocal microscopy (Mitotracker, calcein-AM, IMARIS); type: cell-based, rat; conditions: 1 and 10 μM, 6 h
Protocol: FIG. 6. Effects on mitochondrial dynamics by fluorescence microscopy The RNVCs were treated with 1 μM hits (FIG. 6A) and 10 μM hits (FIG. 6B) for 6 h and the mitochondrial network was stained with 200 nM of Mitotracker. The mitochondrial network and individual mitochondria were then analyzed using a Leica confocal microscope and IMARIS software. Data are presented as mean±SEM with single-factor ANOVA, and multiple Sidak comparisons. *, p<0.05, **, p<0.01, ***, p<0.001 with respect to DMSO.
FIG. 11: following the treatment of the RNVCs with the compounds as indicated, the cell volume was stained with 4 μM of calcein-AM. The cell volume was then analyzed using the IMARIS software.
Confocal microscopy. On day 0, 4×10^5 neonatal cardiomyocytes were plated overnight on laminin-coated 35 mm culture dishes (10 μg/ml). On day 1, the cells were treated with various compounds at 1 or 10 μM for 6 hours. The cells were incubated with Mitotracker Red 580 at 200 nM for 20 minutes at 37° C., then 4 μM of calcein (Calcein AM, Life Technologies, St Aubin, France) for 10 minutes at 37° C. The images were acquired with a Leica confocal microscope (SP5) (Mannheim, Germany). The mitochondrial network and the 3D model of cell volume were reconstructed using the IMARIS software (Bitplane Company, Zurich, Switzerland); therefore the cell volume, mitochondrial number and volume were analyzed.
Due to the importance of mitochondria and reactive oxygen species (ROS) levels in the fate of cardiomyocyte cells, the hypothesis that the compounds could impact the mitochondrial network was explored. Following treatment of the RNVCs with the compounds tested, the mitochondrial network was stained with 200 nM of Mitotracker and the cell volume with 4 μM of calcein-AM. Thus, the mitochondrial network and the individual mitochondria were then analyzed using the IMARIS software.

[4] = tested on: A549 lung cancer cell line; experiment: Influence of hits on growth of A549 cancer cells (total LDH after lysis); type: cell-based; conditions: 48 h
Protocol: The cells were cultured for 6 h in the presence or absence of the hits, and then for 42 h. Finally, the cells were lysed with lysis buffer and the amount of LDH was measured to evaluate the total cell growth.
as §1, §2

[5] = tested on: RNVCs; experiment: Mitochondrial ROS production with MitoSOX fluorescent probe; type: cell-based, rat; conditions: 1 μM, 6 h
Protocol: FIG. 12: The RNVCs were treated with 0.1% DMSO, 3 μM rapamycin, 1 μM digitoxigenin, 1 μM digoxin, 1 μM minaprin, 1 μM VP331, 1 μM LOPA87, 10 μM SG6163F for 6 h, then the ROS production was stained with the MitoSOX fluorescent probe.
The RNVCs were treated with 0.01% DMSO, 3 μM rapamycin, […], 1 μM digoxin, 1 μM minaprine, 1 μM VP331, 1 μM LOPA87, 10 μM SG6163F in a serum-free cell culture medium for 6 hours. The contents (50 μg) of a MitoSOX™ mitochondrial superoxide indicator vial (ThermoFisher, M36008) were dissolved in 13 μl dimethyl sulfoxide (DMSO) to prepare a 5 mM MitoSOX™ reagent stock solution. Next, the 5 mM MitoSOX™ reagent stock solution in PBS was diluted to prepare a 5 μM working solution of MitoSOX™ reagent. After treatment, the cells were rinsed twice with hot PBS and then incubated with a MitoSOX reagent working solution for 10 minutes at 37° C. The cells were gently rinsed three times with hot PBS. Red fluorescence was detected with a Leica confocal microscope. Nuclear fluorescence was suppressed and mitochondrial fluorescence intensity was measured using ImageJ software.
ROSs are produced or accumulated as a by-product of mitochondrial activity metabolism. Thus, the ROSs may be a consequence of mitochondrial function or may reflect a defect in the mitochondrial antioxidant system.

[6] = tested on: AMP-activated protein kinase (AMPK); experiment: Western blot of AMPK phosphorylation in RNVCs; type: cell-based, rat
Protocol: FIG. 8D: AMPK alpha2 and phospho-AMPK protein levels in RNVCs. Data are presented as mean±SEM with single-factor ANOVA, and multiple Sidak comparisons. *, p<0.05, **, p<0.01, ***, p<0.001 with respect to DMSO.
The H9C2 cells and RNVCs were detached in LB containing: 50 mM Tris, 150 mM NaCl, 1 mM EDTA, 0.5% deoxycholate, 1% Triton X 100, 0.1% SDS (pH 8.0). The cells were collected and placed on ice for 30 minutes. The cells were then centrifuged at 2000 g for 20 minutes at for 4° C. The supernatant was transferred to a new tube and stored on ice. The protein concentration was determined by BCA assay. The protein samples were diluted with sample buffer (2× Laemmli, Sigma), mixed, and heated for 5 minutes at 95° C. The samples were then loaded into a precast gel with a gradient of 4 to 20% and migrated for 15 minutes at 300 V. After migration, the membrane and the gel were placed on the base of a Trans Blot Turbo cassette (Bio Rad) and the proteins were transferred for 3 minutes at 2.5 V. After transfer, the membrane was blocked with 5% milk in PBS-Tween and incubated with a primary antibody diluted in PBS-Tween containing 5% w/v milk at 4° C. with gentle stirring, overnight. […] The images were recorded with a gel imaging system (Bio Rad). […]
Next, the energy metabolism was analyzed in real time using the Seahorse technology in H9C2 cells.

CN(C)c1ccc(-c2cc(=O)[nH]c(-c3ccccc3)n2)cc1 [LOPA87]
inhibition of apoptosis of RNVCs [1]: did not protect
inhibition at 10 µM ([2]; inhibition of tritiated dofetilide binding, only values >50% considered effective, read-out: % inhibit 1st assay): 14.6%
inhibition at 10 µM ([2]; inhibition of tritiated dofetilide binding, only values >50% considered effective, read-out: % inhibit 2nd assay): 5.3%
inhibition at 10 µM ([2]; mean of two independent measurements, read-out: % inhibit Mean): 10%
binding to the hERG channel ([2]; inhibition of specific binding of [3H]dofetilide in vitro): negligible
effect on the mitochondrial network [3]: no effect
number of mitochondria [3]: no effect
effect on A549 cell growth [4]: no proliferative effect
local level of mitochondrial superoxide anion [5]: induced an elevation
AMPK phosphorylation compared with the DMSO control [6]: 1.5 fold
